Measured values from US20260070924A1, “INDAZOLE MACROCYCLES AND THEIR USE” (BLOSSOMHILL THERAPEUTICS, INC., priority 2022, published 2026).

How the values were obtained:
Type in all cases: cell-based
Toledo = experiment: Cell proliferation panel (CellTiter-Glo 2.0, 5 days); conditions: Diffuse Large B Cell Lymphoma
Experimental: (§1) Cell proliferation assay was carried out in a panel of 108 cell lines. 1000 (attached cells) or 3000 (suspension cells) cells/100 μl per well were seeded in 96 well black plate with a clear bottom (Corning #3904). Compounds were added using Tecan D300e Digital Dispenser in 1:3 titration for 9 doses. Plates were incubated for 5 days at 37° C. and 5% CO2. Cell proliferation was measured using CellTiter-Glo 2.0 luciferase-based ATP detection assay (Promega, Madison, WI) at 50 μl per well following the manufacturer's protocol. Plates were then read on a TECAN Sparks multimode microplate reader. Data was analyzed using GraphPad Prism 9 (GraphPad Software, San Diego, CA) to obtain IC50 values. IC50 values were determined using Prism software (GraphPad Software, San Diego, CA).

PANC0203 = experiment: as above; conditions: Pancreatic adenocarcinoma
Experimental: as §1

H2291 = experiment: as above; conditions: Lung adenocarcinoma NSCLC
Experimental: as §1

H1930 = experiment: as above; conditions: Lung carcinoma small cell lung cancer
Experimental: as §1

DU4475 = experiment: as above; conditions: Breast carcinoma
Experimental: as §1

U138-MG = experiment: as above; conditions: Brain glioblastaoma
Experimental: as §1

H2228 = experiment: as above; conditions: Lung adenocarcinoma, NSCLC
Experimental: as §1

H526 = experiment: as above; conditions: Small cell lung cancer
Experimental: as §1

H2087 = experiment: as above; conditions: Lung adenocarcinoma NSCLC
Experimental: as §1

22RV1 = experiment: as above; conditions: Prostate carcinoma
Experimental: as §1

PANC0504 = experiment: as above; conditions: Pancreatic carcinoma
Experimental: as §1

Ovcar3 = experiment: as above; conditions: Ovarian adenocarcinoma
Experimental: as §1

LS180 = experiment: as above; conditions: Colorectal adenocarcinoma
Experimental: as §1

HCC38 = experiment: as above; conditions: Mammary gland ductal carcinoma
Experimental: as §1

THP-1 = experiment: as above; conditions: Acute monocytic leukemia
Experimental: as §1

EOL-1 = experiment: as above; conditions: Chronic eosinophilic leukemia
Experimental: as §1

PA-1 = experiment: as above; conditions: Ovary Teratocarcinoma
Experimental: as §1

H211 = experiment: as above; conditions: Small cell lung carcinoma
Experimental: as §1

CAPAN2 = experiment: as above; conditions: Pancreatic adenocarcinoma
Experimental: as §1

HCC1806 = experiment: as above; conditions: Breast carcinoma, TNBC
Experimental: as §1

MIAPaCa-2 = experiment: as above; conditions: Pancreatic carcinoma
Experimental: as §1

MFM-223 = experiment: as above; conditions: Breast carcinoma
Experimental: as §1

MV-4-11 = experiment: as above; conditions: Biphenotypic B-Myelomonocytic Leukemia
Experimental: as §1

U118-MG = experiment: as above; conditions: Brain glioblastoma
Experimental: as §1

ASPC1 = experiment: as above; conditions: Pancreatic adenocarcinoma
Experimental: as §1

KASUMI-4 = experiment: as above; conditions: Chronic Myeloblastic Leukemia
Experimental: as §1

KATOIII = experiment: as above; conditions: Gastric carcinoma
Experimental: as §1

HPAC = experiment: as above; conditions: Pancreatic carcinoma
Experimental: as §1

SK-BR-3 = experiment: as above; conditions: Breast adenocarcinoma
Experimental: as §1

H441 = experiment: as above; conditions: Lung adenocarcinoma NSCLC
Experimental: as §1

BT-474 = experiment: as above; conditions: Mammary gland ductal carcinoma
Experimental: as §1

H727 = experiment: as above; conditions: Bronchial lung carcinoid
Experimental: as §1

H69 = experiment: as above; conditions: Lung small cell carcinoma
Experimental: as §1

HNT-34 = experiment: as above; conditions: Acute myeloid leukemia
Experimental: as §1

SW403 = experiment: as above; conditions: Colorectal adenocarcinoma
Experimental: as §1

Caki-2 = experiment: as above; conditions: Kidney clear cell carcinoma
Experimental: as §1

UCSD-AML1 = experiment: as above; conditions: Acute myeloid leukemia
Experimental: as §1

SUIT-2 = experiment: as above; conditions: Pancreatic tubular adenocarcinoma
Experimental: as §1

BCLxS/xL = experiment: Alternative splicing ratio by qPCR in MV-4-11; conditions: DMSO = 1
Experimental: Alternative splicing ratio of RNA transcripts was measured by qPCR in MV-4-11 and MOLM-13 cell lines. Cells were plated in 24 well plates at 1 million cells per well and then treated with compounds at different concentrations, with DMSO only as control. […] Total RNA was extracted using the RNA Purification Kit (Invitrogen). 2 μg of RNA was used for cDNA synthesis using cDNA synthesis kit (ThermoFisher) and 20 ng of cDNA was used for qPCR using PROFLEX 96-Well PCR System (ThermoFisher).
• BCLxS/xL (SYBR Green, IDT)

- IC50 (PANC0203): 0.126 µM
- IC50 (H2291): 0.362 µM
- IC50 (H1930): 0.181 µM
- IC50 (H2228): 0.118 µM
- IC50 (H526): 0.0755 µM
- IC50 (H2087): 0.141 µM
- IC50 (22RV1): 0.0732 µM
- IC50 (PANC0504): 0.0822 µM
- IC50 (Ovcar3): 0.0707 µM
- IC50 (HCC38): 0.161 µM
- IC50 (THP-1): 0.107 µM
- IC50 (H211): 0.105 µM
- IC50 (HCC1806): 0.0859 µM
- IC50 (MIAPaCa-2): 0.0532 µM
- IC50 (MV-4-11): 0.00068 µM
- IC50 (ASPC1): 0.241 µM
- IC50 (SK-BR-3): 0.0388 µM
- IC50 (H441): 0.0911 µM
- IC50 (BT-474): 0.278 µM
- IC50 (SW403): 0.018 µM
Structure (SMILES): CCc1nn(C)c2c1/C=C/c1n[nH]c3ccc(cc13)-c1cnn(C)c1OCCN(C)C2=O [Ex. 6, (17E)-16-ethyl-8,12,14-trimethyl-2,11,12,14-tetrahydro-8H-3,5-ethenotripyrazolo[3,4-f:3′,4′-j:4″,3″-n][1,4]oxazacyclopentadecin-13(10H)-one]
- IC50 (Toledo): 0.0346 µM
- IC50 (DU4475): 0.0614 µM
- IC50 (U138-MG): 0.17 µM
- IC50 (LS180): 0.0827 µM
- IC50 (EOL-1): 0.0189 µM
- IC50 (PA-1): 0.048 µM
- IC50 (CAPAN2): 0.365 µM
- IC50 (MFM-223): 0.0367 µM
- IC50 (U118-MG): 0.31 µM
- IC50 (KASUMI-4): 0.0112 µM
- IC50 (KATOIII): 0.159 µM
- IC50 (HPAC): 0.0791 µM
- IC50 (H727): 0.101 µM
- IC50 (H69): 0.1 µM
- IC50 (HNT-34): 0.0223 µM
- IC50 (Caki-2): 0.142 µM
- IC50 (UCSD-AML1): 0.0155 µM
- IC50 (SUIT-2): 0.393 µM
- Alternative Splicing Ratio BCL-xS/xL 6-hour (BCLxS/xL; MV-4-11, 2 nM): 0.7
- Alternative Splicing Ratio BCL-xS/xL 24-hour (BCLxS/xL; MV-4-11, 2 nM): 0.6
- Alternative Splicing Ratio BCL-xS/xL 6-hour (BCLxS/xL; MV-4-11, 10 nM): 1.1
- Alternative Splicing Ratio BCL-xS/xL 24-hour (BCLxS/xL; MV-4-11, 10 nM): 0.9
- Alternative Splicing Ratio BCL-xS/xL 6-hour (BCLxS/xL; MV-4-11, 50 nM): 1.4
- Alternative Splicing Ratio BCL-xS/xL 24-hour (BCLxS/xL; MV-4-11, 50 nM): 1.3
- Alternative Splicing Ratio BCL-xS/xL 6-hour (BCLxS/xL; MV-4-11, 250 nM): 3.7
- Alternative Splicing Ratio BCL-xS/xL 24-hour (BCLxS/xL; MV-4-11, 250 nM): 7.3
